Assay results as given in patent US4977139A, “Aqueous elcatonin solution composition” (Toyo Jozo Company, Ltd., priority 1988, dated 1990).

Assay: Severe test against heat (storage at 45° C. for 3 months, residual rate by HPLC)
Type: physicochemical
Experimental: In preparation of 0.1 mM sodium acetate pH buffer of pH 5.5 in Example 2, four kinds of solutions were prepared so that concentration of sodium chloride was 3 mM, 10 mM, 154 mM and 500 mM. Elcatonin was dissolved therein so that elcatonin concentration was 7 μg/ml. Each of the compositions was filled in an ampule in the same manner as in Example 1 to prepare elcatonin injections having four kinds of ionic strength. The resulting elcatonin injections were stored at 45° C. for 3 months and residual rate was obtained under the same conditions as in Test Example 1.

Residual rate (%) (NaCl 3 mM, ionic strength 0.003, 0.1 mM sodium acetate pH 5.5, elcatonin 7 μg/ml): 50%
Residual rate (%) (NaCl 10 mM, ionic strength 0.010, 0.1 mM sodium acetate pH 5.5, elcatonin 7 μg/ml): 79%
Residual rate (%) (NaCl 154 mM, ionic strength 0.154, 0.1 mM sodium acetate pH 5.5, elcatonin 7 μg/ml): 98%
Residual rate (%) (NaCl 500 mM, ionic strength 0.500, 0.1 mM sodium acetate pH 5.5, elcatonin 7 μg/ml): 97%
Substance: 1-butyric acid-7-(L-2-aminobutyric acid)-26- o L-aspartic acid-27-L-valine-29-L-alanine-calcitonin (salmon) [Elcatonin]
